ChEMBL document CHEMBL3352361, “Design and synthesis of coumarin-3-acylamino derivatives to scavenge radicals and to protect DNA” (Eur J Med Chem, 2014)

Tests used:
Assay type in all cases: physicochemical; call rule not given here
[1] = Antioxidant activity assessed as inhibition time period for protection against AAPH-induced DNA oxidation at 37 degC by TBARS method
[2] = Antioxidant activity assessed as protection against Cu2+/GSH-induced DNA oxidation at 150 uM up to 180 mins by TBARS method; conditions: 3 h
[3] = Antioxidant activity assessed as OH-induced DNA oxidation at 150 uM by TBARS method

| SMILES | Time [1] [min] | inhibition (INH) [2] | Activity [3] [%] |
| --- | --- | --- | --- |
| O=C(O)c1cc2ccc(O)cc2oc1=O | 0.82 | Active | 78.8 |
| COc1cc2cc(C(=O)O)c(=O)oc2cc1O | 2.92 | Active | 86.5 |
| O=C(NCCc1ccc(O)cc1)c1cc2ccccc2oc1=O | 1.28 | Not Active | 76.4 |
| O=C(NCCc1ccccc1)c1cc2ccc(O)cc2oc1=O |  | Not Active | 75.3 |
| O=C(NCCc1ccc(O)cc1)c1cc2ccc(O)cc2oc1=O |  | Not Active | 71.5 |
| COc1cc2cc(C(=O)NCCc3ccccc3)c(=O)oc2cc1O | 1.61 | Not Active | 73.6 |
| COc1cc2cc(C(=O)NCCc3ccc(O)cc3)c(=O)oc2cc1O | 7.43 | Not Active | 68.1 |
| O=C(NCCc1ccccc1)c1cc2ccccc2oc1=O |  | Active | 72.9 |
| O=C(O)c1cc2ccccc2oc1=O [COUMARIN-3-CARBOXYLIC ACID] |  | Active | 82.6 |
